The target of test [1] is T1, Mcl-1/Bim interaction, recombinant human Mcl-1 (171-327) (Homo sapiens, UniProt Q07820).
T1 construct: made in house
The test is described as follows: Cell free Mcl-1: Bim Affinity Assay (Mcl-1 HTRF). Type of test: binding. The settings on record: TR-FRET, 0.1 nM Mcl-1 (171-327), 0.05 nM biotin-Bim (51-76). The method, boiled down:
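Displacement of biotinylated Bim 51-76 peptide is followed by TR-FRET. Incubation runs overnight. Duplicate points are fitted with a four-parameter sigmoid to yield IC50.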

Test [2] concerns OPM-2 human multiple myeloma cell line. The test is described as follows: Cell Viability Assay (OPM-2 10 FBS). Type of test: cell-based. To be noted: OPM-2 cells, 16 h, CellTiter-Glo. The procedure, abridged: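 IC50 from 4-parameter logistic fit of CellTiter-Glo luminescence. 3000 cells/well, 10% FBS medium, serial compound dilutions, 16 h, 37 °C/5% CO2; read 25 min post-reagent.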
A general note: In ATP-based viability assays light output follows the ATP content of the culture.

The structures appear in SMILES notation.

T1 sequence (Q07820 171-327): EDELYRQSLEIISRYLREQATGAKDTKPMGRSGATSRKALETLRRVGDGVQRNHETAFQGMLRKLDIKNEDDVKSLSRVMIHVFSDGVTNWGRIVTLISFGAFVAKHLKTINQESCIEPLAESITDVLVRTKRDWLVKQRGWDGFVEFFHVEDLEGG

In the case of `C[C@@H]1[C@@H](C)C/C=C/[C@H](OCc2ncccn2)[C@@H]2CC[C@H]2CN2C[C@@]3(CCCc4cc(Cl)ccc43)COc3ccc(cc32)C(=O)NS1(=O)=O` [Example 317, (1S,3′R,6′R,7′S,8′E,11′S,12′R)-6-chloro-11′,12′-dimethyl-7′-(2-pyrimidinylmethoxy)-3,4-dihydro-2H,15′H-spiro[naphthalene-1,22′-[20]oxa[13]thia[1,14]diazatetracyclo[14.7.2.0^3,6.0^19,24]pentacosa [8,16,18,24]tetraen]-15′-one 13′,13′-dioxide], the IC50 – broadly, the concentration that gives 50% inhibition – in test [1] is 0.223 nM; in test [2] (Homo sapiens, OPM-2, 16 h), 196 nM.

As for `O=C1NS(=O)(=O)N2CCC[C@@H]2C/C=C/[C@H](O)[C@@H]2CC[C@H]2CN2C[C@@]3(CCCc4cc(Cl)ccc43)COc3ccc1cc32` [Example 347, (1S,3′R,6′R,7′S,8′E,11R)-6-chloro-7′-hydroxy-3,4-dihydro-2H,18′H-spiro[naphthalene-1,25′-[23]oxa[16]thia[1,15,17]triazapentacyclo[17.7.2.0^3,6.0^11,15.0^22,27]octacosa[8,19,21,27]tetraen]-18′-one 16′,16′-dioxide], the IC50 in test [1] was found to be 7.22 nM; in test [2] it was 5550 nM.

On to `C[C@@H]1[C@@H](C)C/C=C/C(=O)[C@@H]2CC[C@H]2CN2C[C@@]3(CCCc4cc(Cl)ccc43)COc3ccc(cc32)C(=O)NS1(=O)=O` [Example 349, (1S,3′R,6′R,8′E,11′S,12′R)-6-chloro-11′,12′-dimethyl-3,4-dihydro-2H,7′H,15′H-spiro[naphthalene-1,22′-[20]oxa[13]thia[1,14]diazatetracyclo[14.7.2.0^3,6.0^19,24]pentacosa [8,16,18,24]tetraene]-7′,15′-dione 13′,13′-dioxide], for which the half-maximal inhibitory concentration (IC50) was 3.83 nM in test [1] and 1050 nM in test [2] (Homo sapiens, OPM-2, 16 h).

As for `COCCOCCO[C@H]1/C=C/C[C@H](C)[C@@H](C)S(=O)(=O)NC(=O)c2ccc3c(c2)N(C[C@@H]2CC[C@H]21)C[C@@]1(CCCc2cc(Cl)ccc21)CO3` [Example 377, (1S,3′R,6′R,7′S,8′E,11′S,12′R)-6-chloro-7′-(2-(2-methoxyethoxy)ethoxy)-11′,12′-dimethyl-3,4-dihydro-2H,15′H-spiro[naphthalene-1,22′-[20]oxa[13]thia[1,14]diazatetracyclo[14.7.2.0^3,6.0^19,24]pentacosa[8,16,18,24]tetraen]-15′-one 13′,13′-dioxide], the IC50 in test [1] came out at 0.303 nM; in test [2] (Homo sapiens, OPM-2, 16 h), 180 nM.

Consider `COCCOCCOCCO[C@H]1/C=C/C[C@H](C)[C@@H](C)S(=O)(=O)NC(=O)c2ccc3c(c2)N(C[C@@H]2CC[C@H]21)C[C@@]1(CCCc2cc(Cl)ccc21)CO3` [Example 378, (1S,3′R,6′R,7′S,8′E,11′S,12′R)-6-chloro-7′-(2-(2-(2-methoxyethoxy)ethoxy)ethoxy)-11′,12′-dimethyl-3,4-dihydro-2H,15′H-spiro[naphthalene-1,22′-[20]oxa[13]thia[1,14]diazatetracyclo[14.7.2.0^3,6.0^19,24]pentacosa[8,16,18,24]tetraen]-15′-one 13′,13′-dioxide], for which the IC50 in test [1] came out at 0.24 nM; in test [2] (Homo sapiens, OPM-2, 16 h) it was 140 nM.

For the molecule `COCCOCCOCCOCCO[C@H]1/C=C/C[C@H](C)[C@@H](C)S(=O)(=O)NC(=O)c2ccc3c(c2)N(C[C@@H]2CC[C@H]21)C[C@@]1(CCCc2cc(Cl)ccc21)CO3` [Example 379, (1S,3′R,6′R,7′S,8′E,11′S,12′R)-6-chloro-11′,12′-dimethyl-7′-(3,6,9,12-tetraoxatridec-1-yloxy)-3,4-dihydro-2H,15′H-spiro[naphthalene-1,22′-[20]oxa[13]thia[1,14]diazatetracyclo[14.7.2.0^3,6.0^19,24]pentacosa[8,16,18,24]tetraen]-15′-one 13′,13′-dioxide], the IC50 is 0.211 nM in test [1] and 128 nM in test [2] (Homo sapiens, OPM-2, 16 h).

Take `CC1CC=CC(OCC(C)N2CCOCC2)C2CCC2CN2CC3(CCCc4cc(Cl)ccc43)COc3ccc(cc32)C(=O)NS(=O)(=O)C1CC1CC1` (centres unmarked) [Example 387]: the IC50 in test [1] was 1.65 nM; in test [2] (Homo sapiens, OPM-2, 16 h), 1250 nM.

(Values after patent publication US12091425B2 (AMGEN INC., priority 2016, dated 2024).)
